Patent publication US10059689B2, “Substituted heteroaryl compounds and methods of use” (Sunshine Lake Pharma Co., Ltd., priority 2014, dated 2018)
pIC50: −log10 of the molar value.

Tests used:
Aurora-A (h) = biological target: T1, Aurora-A (h) (Homo sapiens, UniProt O14965); experiment: Aurora-A (h) kinase assay; assay type: biochemical
T1 construct: purchased Millipore UK Ltd (contract assay service)
T1 sequence (O14965 1-403): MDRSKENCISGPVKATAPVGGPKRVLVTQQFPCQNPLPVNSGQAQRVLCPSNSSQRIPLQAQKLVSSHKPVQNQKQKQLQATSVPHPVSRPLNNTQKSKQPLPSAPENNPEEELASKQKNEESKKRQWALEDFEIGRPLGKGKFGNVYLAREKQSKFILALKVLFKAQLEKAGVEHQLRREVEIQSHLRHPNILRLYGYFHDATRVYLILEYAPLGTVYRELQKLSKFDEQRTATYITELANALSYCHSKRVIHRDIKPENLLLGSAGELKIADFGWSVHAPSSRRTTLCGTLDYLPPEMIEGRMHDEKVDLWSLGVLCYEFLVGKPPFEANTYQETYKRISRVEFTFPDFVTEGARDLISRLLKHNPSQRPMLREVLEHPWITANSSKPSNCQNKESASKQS
Experimental: (§1) Kinase assays can be performed by measurement of incorporation of γ-33P ATP into immobilized myelin basic protein (MBP). High binding white 384 well plates (Greiner) are coated with MBP (Sigma #M-1891) by incubation of 60 μL/well of 20 μg/mL MBP in Tris-buffered saline (TBS; 50 mM Tris pH 8.0, 138 mM NaCl, 2.7 mM KCl) for 24 h at 4° C. Plates are washed 3× with 100 μL TBS. Kinase reactions are carried out in a total volume of 34 μL in kinase buffer (according to the need to make, for example, 5 mM Hepes pH 7.6, 15 mM NaCl, 0.01% bovine gamma globulin (Sigma #I-5506), 10 mM MgCl2, 1 mM DTT, 0.02% TritonX-100). Compound dilutions are performed in DMSO and added to assay wells to a final DMSO concentration of 1%. Each data point is measured in duplicate, and at least two duplicate assays are performed for each individual compound determination. Enzyme is added to final concentrations of 10 nM or 20 nM, for example. A mixture of unlabeled ATP and γ-33P ATP is added to start the reaction (2×10^6 cpm of γ-33P ATP per well (3000 Ci/mmole) and 10 μM unlabeled ATP, typically. The reactions are carried out for 1 h at room temperature with shaking Plates are washed 7× with TBS, followed by the addition of 50 μL/well scintillation fluid (Wallac). Plates are read using a Wallac Trilux counter. This is only one format of such assays; various other formats are possible, as known to one skilled in the art.
(§2) The above assay procedure can be used to determine the IC50 for inhibition and/or the inhibition constant, Ki. The IC50 is defined as the concentration of compound required to reduce the enzyme activity by 50% under the condition of the assay. The IC50 value is estimated by preparing a 10 point curve using a ½ log dilution series (for example, a typical curve may be prepared using the following compound concentrations: 3 μM, 1 μM, 0.3 μM, 0.1 μM, 0.03 μM, 0.01 μM, 0.003 μM, 0.001 μM, 0.0003 μM and 0 μM).
Aurora-A (h) is incubated with 8 mM MOPS pH 7.0, 0.2 mM EDTA, 200 μM LRRASLG (Kemptide), 10 mM MgAcetate and [γ-^33P-ATP] […]

JAK3 (h) = biological target: T2, JAK3 (h) (Homo sapiens, UniProt P52333); experiment: JAK3 (h) kinase assay; assay type: biochemical
T2 construct: purchased Millipore UK Ltd (contract assay service)
T2 sequence (P52333 1-1124): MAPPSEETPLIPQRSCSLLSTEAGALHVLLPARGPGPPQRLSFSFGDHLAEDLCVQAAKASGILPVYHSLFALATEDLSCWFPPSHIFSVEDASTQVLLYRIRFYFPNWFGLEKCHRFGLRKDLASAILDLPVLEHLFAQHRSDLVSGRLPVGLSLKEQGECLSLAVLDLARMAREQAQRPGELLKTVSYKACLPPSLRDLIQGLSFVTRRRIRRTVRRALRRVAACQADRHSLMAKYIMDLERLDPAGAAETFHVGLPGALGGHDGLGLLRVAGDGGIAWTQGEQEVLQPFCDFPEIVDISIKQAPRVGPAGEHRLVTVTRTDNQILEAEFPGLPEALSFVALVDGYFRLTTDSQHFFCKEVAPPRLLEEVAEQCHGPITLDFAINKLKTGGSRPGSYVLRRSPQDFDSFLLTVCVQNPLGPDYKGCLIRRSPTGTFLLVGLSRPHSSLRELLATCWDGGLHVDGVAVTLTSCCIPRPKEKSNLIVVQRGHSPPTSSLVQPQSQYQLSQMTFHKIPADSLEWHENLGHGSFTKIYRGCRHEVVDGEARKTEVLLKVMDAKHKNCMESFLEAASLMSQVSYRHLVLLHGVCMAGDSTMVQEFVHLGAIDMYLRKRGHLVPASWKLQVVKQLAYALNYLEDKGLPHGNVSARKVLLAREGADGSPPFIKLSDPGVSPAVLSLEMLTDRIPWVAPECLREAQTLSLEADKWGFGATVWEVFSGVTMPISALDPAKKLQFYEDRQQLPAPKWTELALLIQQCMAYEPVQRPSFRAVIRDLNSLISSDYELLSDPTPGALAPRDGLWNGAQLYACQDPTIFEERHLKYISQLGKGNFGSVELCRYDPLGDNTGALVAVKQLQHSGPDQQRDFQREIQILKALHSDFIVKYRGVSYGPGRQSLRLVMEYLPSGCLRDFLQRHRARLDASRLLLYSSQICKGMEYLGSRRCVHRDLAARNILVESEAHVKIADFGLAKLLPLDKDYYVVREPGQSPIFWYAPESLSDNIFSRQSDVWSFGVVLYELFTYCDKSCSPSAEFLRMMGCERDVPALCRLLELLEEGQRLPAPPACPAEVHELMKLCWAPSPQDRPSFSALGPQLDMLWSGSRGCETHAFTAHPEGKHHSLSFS
Experimental: as §1, §2
JAK3 (h) is incubated with 8 mM MOPS pH 7.0, 0.2 mM EDTA, 500 μM GGEEEEYFELVKKKK, 10 mM MgAcetate and [γ-^33P-ATP] (specific activity approx. 500 cpm/pmol, concentration as required). The reaction is initiated by the addition of the MgATP mix. After incubation for 40 minutes at room temperature, the reaction is stopped by the addition of 3% phosphoric acid solution. 10 μL of the reaction is then spotted onto a P30 filtermat and washed three times for 5 minutes in 75 mM phosphoric acid and once in methanol prior to drying and scintillation counting.
The kinase assays described herein were performed at Millipore UK Ltd, Dundee Technology Park, Dundee DD2 1SW, UK.

| SMILES | pIC50 (Aurora-A (h)) | pIC50 (JAK3 (h)) |
| --- | --- | --- |
| Cn1cc(Nc2ncc(Cl)c(NC3CCN(c4ccc(C#N)cn4)CC3)n2)cn1 [Ex. 1, 6-(4-((5-chloro-2-((1-methyl-1H-pyrazol-4-yl)amino)pyrimidin-4-yl)amino)piperidin-1-yl)nicotinonitrile] | 7.17 | – |
| Cc1c2ccc(Nc3ncc(Cl)c(NC4CCN(c5ccc(C#N)cn5)CC4)n3)cc2nn1C [Ex. 4] | 6.30 | 7.68 |
| CN(c1nc(Nc2cnn(C)c2)ncc1Cl)C1CCN(c2ccc(C#N)cn2)CC1 [Ex. 5, 6-(4-((5-chloro-2-((1-methyl-1H-pyrazol-4-yl)amino)pyrimidin-4-yl) (methyl)amino)piperidin-1-yl)nicotinonitrile] | 7.18 | 7.89 |
| Cc1nn(C)cc1Nc1ncc(Cl)c(NC2CCN(c3ccc(C#N)cn3)CC2)n1 [Ex. 10, 6-(4-((5-chloro-2-((1,3-dimethyl-1H-pyrazol-4-yl)amino)pyrimidin-4-yl)amino)piperidin-1-yl)nicotinonitrile] | – | 7.09 |

The remaining lines, values ahead:

| pIC50 (Aurora-A (h)) | pIC50 (JAK3 (h)) | SMILES |
| --- | --- | --- |
| – | 6.58 | Cc1nn(C)cc1Nc1ncc(Cl)c(NC2CCN(c3ccc(C#N)nn3)CC2)n1 [Ex. 11, 6-(4-((5-chloro-2-((1,3-dimethyl-1H-pyrazol-4-yl)amino)pyrimidin-4-yl)amino)piperidin-1-yl)pyridazine-3-carbonitrile] |
| – | 7.70 | Cc1c2ccc(Nc3ncc(Cl)c(NC4CCN(c5ccc(C#N)nn5)CC4)n3)cc2nn1C [Ex. 12, 6-(4-((5-chloro-2-((2,3-dimethyl-2H-indazol-6-yl)amino)pyrimidin-4-yl)amino)piperidin-1-yl)pyridazine-3-carbonitrile] |
| – | 7.14 | Cc1cc(Nc2ncc(Cl)c(NC3CCN(c4ccc(C#N)nn4)CC3)n2)nn1C [Ex. 13, 6-(4-((5-chloro-2-((1,5-dimethyl-1H-pyrazol-3-yl)amino)pyrimidin-4-yl)amino)piperidin-1-yl)pyridazine-3-carbonitrile] |
